According to patent publication US20220071891A1, “Extract of Chlamydomonas Acidophila, Method for Preparing Same and Cosmetic Compositions and Dermatological Compositions Comprising Same” (Laboratoires Expanscience, priority 2018, published 2022):

Tests used:
[1] = test system: epidermal keratinocytes subjected to Th2 stress; experiment: qRT-PCR gene expression in keratinocytes subjected to Th2 stress; assay type: cell-based, human; conditions: 10 μM, 24 h preincubation, Th2 cytokine cocktail 24 h; control = 100
Description: (§1) The potential anti-allergic effects of the Chlamydomonas acidophila extract were investigated on: • Gene expression of pro-inflammatory chemokines in normal human epidermal keratinocytes (NHEK) stimulated by a mixture of Th2 cytokines (IL-4+IL-13+IL-22+TNF-α) mimicking a late-phase “atopic dermatitis” type phenotype (chronic inflammation). • Activation of human basophils induced by fMLP. This activation was measured using a specific kit and flow cytometry analysis by quantifying a specific marker of activated basophil cells (CD63) in the total population of basophils identified by expression of the CCR3 marker. In parallel, activation with the anti-FCεRI antibody was performed as a positive control.
Normal human epidermal keratinocytes were preincubated for 24 hours in the presence of the CAP extract at 0.01% dry matter (DM) or reference JAK inhibitor I at 10 μM. After preincubation, the cells were retreated with the CAP extract or reference and then the cells were stimulated with a Th2 cytokine cocktail (IL4+1L13+1L22+TNFα at 10 ng/ml) for 24 hours.
At the end of incubation, gene expression of markers of interest was assessed by qRT-PCR.

[2] = test system: keratinocytes treated with hydrogen peroxide (H2O2); experiment: ROS production (DCFH-DA) in keratinocytes treated with H2O2; assay type: cell-based, human; conditions: 24 h preincubation, 100 μM H2O2 20 minutes
Text: The evaluation of the antioxidant effect of the active agent is done through the incorporation of DCFH-DA (2′,7′-dichlorofluorescin diacetate) into cultured keratinocytes. This molecule is a non-fluorescent marker in the non-oxidized state. Under oxidizing conditions (here H2O2 stress), DCFH-DA will be degraded to DCF, a molecule that will emit fluorescence. The fluorescence measured will be proportional to the amount of reactive oxygen species produced by the cell in the presence of H2O2 and/or the extract. Normal human epidermal keratinocytes were preincubated for 24 hours in the presence of the CAP extract at 0.0001% dry matter, quercetin at 10 μM or vitamin C at 500 μM (the latter two molecules serving as antioxidant reference). The cells are then treated for 1 h in the presence of 0.5 mM DCFH-DA. Oxidation is induced by adding 100 μM H2O2 for 20 minutes. A second treatment with the tested products is performed simultaneously with H2O2 stress (at the same concentrations as the pretreatment). Finally, a measurement of the fluorescence density (DFU) corresponding to the amount of ROS is performed using a microplate reader. The significance of the results was checked by a one-way ANOVA followed by a Tuckey test (GraphPad Prism software version 5.02, GraphPad Software, San Diego Calif. USA).

human basophils = experiment: Basophil activation test (Flow CAST), fMLP-stimulated; assay type: cell-based; conditions: whole blood, 1 μM fMLP
Description: as §1
The basophil activation test (BAT) was performed using the Flow CAST® kit (BUHLMANN, item code FKCCR).
Whole blood was preincubated for 15 minutes in the presence of the CAP extract at 0.033% and 0.1% dry matter (DM) or the references (SB202190 at 30 μM; or cromoglycate at 10 mM).
The stimulant, 1 μM fMLP, was then added and the blood was incubated for an additional 15 minutes in the presence of the labeling buffer containing a mixture of monoclonal antibodies (anti-CD63-FITC and anti-CCR3-PE).
Flow cytometry analysis was then performed to count the total population of basophils (CCR3+) and activated basophils (CCR3+/CD63+).

[3] = test system: NiSO4-stimulated normal human keratinocytes; experiment: IL8 assay in NiSO4-stimulated keratinocytes; assay type: cell-based; conditions: 1 μM, 24 h pretreatment, then 10 μM NiSO4 24 h
Description: Normal human epidermal keratinocytes were pretreated for 24 hours with CAP extract at 0.01% and 0.05% dry matter or with the anti-inflammatory reference molecule dexamethasone at 1 μM. The keratinocytes were then treated for 24 hours with nickel: NiSO4 at 10 μM. At the end of the incubation, the amount of IL8 produced by the cells was assessed by ELISA in the supernatants.
The concentration of IL8 assayed was normalized to the amount of total intracellular protein assessed by BC Assay.
Significance of results was statistically analyzed by a Student's t-test.

[4] = test system: normal human keratinocytes stimulated with PMA; experiment: PGE2 assay in keratinocytes stimulated with PMA; assay type: cell-based; conditions: 0.1 μM, 24 h pretreatment; for PGE2, change vs PMA: then 10 μg/ml PMA; for PGE2, mean: then 10 μg/ml PMA overnight
Description: (§2) The anti-inflammatory activity of the Chlamydomonas acidophila extract according to the invention was evaluated on a model of inflammation induced on keratinocytes by PMA (phorbol 12-myristate 13-acetate) treatment. The release of the cytokines TNFα and prostaglandin E2 (PGE2) was analyzed.
(§3) Normal human epidermal keratinocytes were pretreated for 24 h with the Chlamydomonas acidophila (CAP) extract according to Example 1, at concentrations comprised between 0.0001% and 0.05% dry matter, or with the anti-inflammatory reference molecules dexamethasone at 0.1 μM or indomethacin at 0.1 μM (the latter two references serving as anti-inflammatory references for cytokines and prostaglandins, respectively).
(§4) Inflammation was then induced by addition of PMA at 10 μg/mL overnight.
(§5) A TNFα and PGE2 assay was then performed in the cell culture supernatants.
(§6) The significance of the results was checked by a one-way ANOVA followed by a Tuckey test (GraphPad Prism software version 5.02, GraphPad Software, San Diego Calif. USA).

[5] = test system: normal human keratinocytes stimulated with PMA; experiment: TNF-alpha assay in keratinocytes stimulated with PMA; assay type: cell-based; conditions: 0.1 μM, 24 h pretreatment; for TNF-alpha, change vs PMA: then 10 μg/ml PMA; for TNF-alpha, mean: then 10 μg/ml PMA overnight
Description: as §2, §3, §4, §5, §6

[6] = test system: cadmium-stimulated normal human keratinocytes; experiment: PGE2 assay in cadmium-stimulated keratinocytes; assay type: cell-based; conditions: 0.1 μM, 24 h pretreatment, then 100 μM CdCl2 48 h
Description: Normal human epidermal keratinocytes were pretreated for 24 hours with the CAP extract at 0.001% and 0.01% dry matter or with the anti-inflammatory reference molecule indomethacin at […]. The keratinocytes were then treated for 48 hours with cadmium: CdCl2 at 100 μM. At the end of the incubation, the amount of PGE2 produced by the cells was assessed by ELISA in the supernatants. The concentration of PGE2 assayed was normalized to the amount of total intracellular protein assessed by BC Assay.

SMILES: CC(C)(C)c1nc2c3cc[nH]c(=O)c3c3cc(F)ccc3c2[nH]1 [JAK inhibitor]
- CCL5 Relative expression (%) [1]: 101%
- CCL27 Relative expression (%) [1]: 1436%

SMILES: O=c1c(O)c(-c2ccc(O)c(O)c2)oc2cc(O)cc(O)c12 [Quercetin, quercetin]
- ROS, change vs H2O2 ([2]; 10 μM): −92% vs H2O2
- ROS, mean ([2]; 10 μM): 7787.00 fluorescence units

SMILES: Oc1ccc(-c2nc(-c3ccncc3)c(-c3ccc(F)cc3)[nH]2)cc1 [SB202190]
- % of activated basophils (CCR3+/CD63+), mean (human basophils; 30 μM): 30.4%

SMILES: O=C1O[C@H]([C@@H](O)CO)C(O)=C1O [Vitamin C, vitamin C]
- ROS, change vs H2O2 ([2]; 500 μM): −89% vs H2O2
- ROS, mean ([2]; 500 μM): 10932.50 fluorescence units

SMILES: O=C(O)c1cc(=O)c2c(OCC(O)COc3cccc4oc(C(=O)O)cc(=O)c34)cccc2o1 [cromoglycate]
- % of activated basophils (CCR3+/CD63+), mean (human basophils; 10 μM (table; text 10 mM)): 22.3%

SMILES: C[C@@H]1C[C@H]2[C@@H]3CCC4=CC(=O)C=C[C@]4(C)[C@@]3(F)[C@@H](O)C[C@]2(C)[C@@]1(O)C(=O)CO [dexamethasone]
- IL8, change vs Ni [3]: −63% vs Ni
- IL8, mean [3]: 1685 pg/ml/mg protein
- PGE2, change vs PMA [4]: −22% vs PMA
- PGE2, mean [4]: 985.126 pg/mL
- TNF-alpha, change vs PMA [5]: −56% vs PMA
- TNF-alpha, mean [5]: 126.112 pg/mL

SMILES: COc1ccc2c(c1)c(CC(=O)O)c(C)n2C(=O)c1ccc(Cl)cc1 [indomethacin]
- PGE2, change vs PMA [4]: −87% vs PMA
- PGE2, mean [4]: 163.031 pg/mL
- TNF-alpha, change vs PMA [5]: −60%
- TNF-alpha, mean [5]: 113.266 pg/mL
- PGE2, change vs Cd [6]: −54% vs Cd
- PGE2, mean [6]: 3.874 pg/μg of protein
